SMILES strings stand for the structures.

This passage reports IC50, Emax and EC50 results from US20140057895A1, “INDAZOLE- AND PYRROLOPYRIDINE-DERIVATIVE AND PHARMACEUTICAL USE THEREOF” (priority 2011, published 2014).

Test [1] addresses T1, Human 5-HT4 receptor (5-HT4b) (Homo sapiens, UniProt Q13639).
T1 construct: expressed in transfected cells; membrane preparation
As to the kind of experiment: Test Example 3: Human 5-HT4 receptor binding assay, membranes of CHO-K1 cells stably expressing 5-HT4b receptors (Table 99). The note with it: mean value of each group. The procedure, abridged:
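Membranes from CHO-K1 cells stably expressing 5-HT4b incubated with 0.1 nM [3H]-GR113808 in 50 mM Hepes pH 7.4, 37 °C, 30 min; nonspecific binding with 30 μM serotonin. Bound label collected by filtration and scintillation counting; IC50 from inhibition of specific binding.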

For the next test, the target named is T2, human 5-HT4b receptor (Homo sapiens, UniProt Q13639).
T2 construct: expressed in transfected cells; host or cells: CHO cells (G418 selection)
T2 sequence (Q13639 whole entry): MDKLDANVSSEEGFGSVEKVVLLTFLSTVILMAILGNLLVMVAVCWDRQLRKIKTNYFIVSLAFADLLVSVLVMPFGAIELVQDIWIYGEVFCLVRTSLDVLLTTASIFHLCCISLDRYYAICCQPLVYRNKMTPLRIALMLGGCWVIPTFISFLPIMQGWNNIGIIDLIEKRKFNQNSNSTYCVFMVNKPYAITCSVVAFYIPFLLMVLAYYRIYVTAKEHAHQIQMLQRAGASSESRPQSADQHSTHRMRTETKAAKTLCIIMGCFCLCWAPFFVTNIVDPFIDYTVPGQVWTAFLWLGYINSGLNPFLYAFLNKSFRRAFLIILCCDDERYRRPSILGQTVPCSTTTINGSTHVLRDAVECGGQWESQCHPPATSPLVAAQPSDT
Nature of the test: Test Example 4: Serotonin 4 (5-HT4) receptor agonist activity assay, cAMP HTRF in CHO cells (Table 100). It counts as cell-based. The settings on record: mean value; for Emax: CHO, 0.25 h, intrinsic activity, maximal activity of 5-HT defined as 100%, read-out: IA (%); for EC50: concentration showing 50% of IA. A digest of the protocol:
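CHO cells expressing human 5-HT4b receptor, serum-reduced for 1–2 h, were suspended in Hanks/HEPES pH 7.4 and exposed to compound for 15 min at 31° C. cAMP detected by HTRF (cryptate/d2, 1 h RT, 620/665 nm). EC50 and intrinsic activity relative to maximal 5-HT response (10^−11 to 10^−7 M) set at 100%.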

T1 sequence (Q13639 whole entry): as above

Broadly, the IC50 is the midpoint of a concentration-inhibition curve. The low end stands for greater potency, the high end for weaker potency. One may read the EC50 as the concentration giving half of the maximal effect. Read a high EC50 as a less potent agent. Compound `CC(C)c1nn(-c2noc(C[C@@H]3CCN(C[C@@H]4CCCN4C(=O)CO)C3)n2)c2c(F)cccc12` [Example 546, 1-[(2S)-2-{[(3S)-3-({3-[7-fluoro-3-(propan-2-yl)-1H-indazol-1-yl]-1,2,4-oxadiazol-5-yl}methyl)pyrrolidin-1-yl]methyl}pyrrolidin-1-yl]-2-hydroxyethanone] gave an IC50 in test [1] of under 20 nM. Moreover, on human 5-HT4b receptor, the Emax is 63% and the 50% effective concentration (EC50) amounted to 20.1 nM.
For `CC(C)c1nn(-c2noc(C[C@@H]3CCN(C[C@H]4CCCN4C(=O)CO)C3)n2)c2c(F)cccc12` [Example 547, 1-[(2R)-2-{[(3S)-3-({3-[7-fluoro-3-(propan-2-yl)-1H-indazol-1-yl]-1,2,4-oxadiazol-5-yl}methyl)pyrrolidin-1-yl]methyl}pyrrolidin-1-yl]-2-hydroxyethanone], in that order: under 20 nM, 54% and 14.1 nM.
For `CC(C)c1nn(-c2noc(C[C@@H]3CCN(CC4CN(C(=O)CO)C4)C3)n2)c2c(F)cccc12` [Example 548, 1-(3-{[(3S)-3-({3-[7-fluoro-3-(propan-2-yl)-1H-indazol-1-yl]-1,2,4-oxadiazol-5-yl}methyl)pyrrolidin-1-yl]methyl}azetidin-1-yl)-2-hydroxyethanone], in that order: under 20 nM, 73% and 6.4 nM.
With `CC(C)c1nn(-c2noc(C[C@@H]3CCN(C[C@@H]4CCN(C(=O)CO)C4)C3)n2)c2c(F)cccc12` [Example 549, 1-[(3S)-3-{[(3S)-3-({3-[7-fluoro-3-(propan-2-yl)-1H-indazol-1-yl]-1,2,4-oxadiazol-5-yl}methyl)pyrrolidin-1-yl]methyl}pyrrolidin-1-yl]-2-hydroxyethanone], the IC50 in test [1] is under 20 nM. At human 5-HT4b receptor, the Emax was determined as 91% and the midpoint of the response, the EC50, lay at 5.6 nM.
The compound `CC(C)c1nn(-c2noc(C[C@@H]3CCN(C[C@H]4CCN(C(=O)CO)C4)C3)n2)c2c(F)cccc12` [Example 550, 1-[(3R)-3-{[(3S)-3-({3-[7-fluoro-3-(propan-2-yl)-1H-indazol-1-yl]-1,2,4-oxadiazol-5-yl}methyl)pyrrolidin-1-yl]methyl}pyrrolidin-1-yl]-2-hydroxyethanone] came in with an IC50 in test [1] of under 20 nM. At human 5-HT4b receptor, the Emax is 85% and the EC50 stood at 5.1 nM.
For `CC(=O)N1CCC(N2CCC(F)(c3nc(-n4nc(C(C)C)c5cccc(F)c54)no3)CC2)CC1` [Example 561, 1-(4-fluoro-4-{3-[7-fluoro-3-(propan-2-yl)-1H-indazol-1-yl]-1,2,4-oxadiazol-5-yl}-1,4′-bipiperidin-1′-yl)ethanone], in that order: 33.3 nM, 109% and 8.9 nM.
Consider `CC(=O)NCCCN[C@H]1C[C@@H](c2nc(-n3nc(C(C)C)c4cccc(F)c43)no2)C1` [Example 566], for which, in test [1], the 50% inhibitory concentration (IC50) is under 20 nM. Moreover, on human 5-HT4b receptor, the Emax came out at 90% and the response was half-maximal at 3.1 nM (EC50).
`CCc1nn(-c2noc(C3CCN(C[C@@H]4CCN(C(=O)CO)C4)CC3)n2)c2c(F)cccc12` [Example 582, 1-[(3S)-3-({4-[3-(3-ethyl-7-fluoro-1H-indazol-1-yl)-1,2,4-oxadiazol-5-yl]piperidin-1-yl}methyl)pyrrolidin-1-yl]-2-hydroxyethanone]: in test [1], the IC50 is under 20 nM. For the same compound, at human 5-HT4b receptor, the Emax amounted to 91% and the response was half-maximal at 3.7 nM (EC50).
In test [1], `CCc1nn(-c2noc(C3CCN(C[C@@H]4CCCN4C(=O)CO)CC3)n2)c2c(F)cccc12` [Example 583, 1-[(2S)-2-({4-[3-(3-ethyl-7-fluoro-1H-indazol-1-yl)-1,2,4-oxadiazol-5-yl]piperidin-1-yl}methyl)pyrrolidin-1-yl]-2-hydroxyethanone] showed a concentration for half-maximal inhibition (IC50) of under 20 nM. For the same compound, at human 5-HT4b receptor, the Emax worked out at 84% and the midpoint of the response, the EC50, lay at 5.9 nM.
For `CC(C)c1nn(-c2noc(C3CCN(C[C@@H]4CCN(S(C)(=O)=O)C4)CC3)n2)c2c(F)cccc12` [Example 585, 7-fluoro-1-[5-(1-{[(3S)-1-(methylsulfonyl)pyrrolidin-3-yl]methyl}piperidin-4-yl)-1,2,4-oxadiazol-3-yl]-3-(propan-2-yl)-1H-indazole], in that order: under 20 nM, 109% and 2.4 nM.
Consider `CC(C)c1nn(-c2noc(C3CCN(C[C@H]4CCN(S(C)(=O)=O)C4)CC3)n2)c2c(F)cccc12` [Example 586, 7-fluoro-1-[5-(1-{[(3R)-1-(methylsulfonyl)pyrrolidin-3-yl]methyl}piperidin-4-yl)-1,2,4-oxadiazol-3-yl]-3-(propan-2-yl)-1H-indazole], for which, in test [1], the IC50 was under 20 nM. Also, at human 5-HT4b receptor, the Emax is 105% and the response was half-maximal at 2.2 nM (EC50).
`CC(=O)N1CCC(CN[C@H]2C[C@@H](c3nc(-n4nc(C(C)C)c5cccc(F)c54)no3)C2)CC1` [Example 590, 1-(4-{[(cis-3-{3-[7-fluoro-3-(propan-2-yl)-1H-indazol-1-yl]-1,2,4-oxadiazol-5-yl}cyclobutyl)amino]methyl]piperidin-1-yl)ethanone]: the 50% inhibitory concentration (IC50) in test [1] was determined as 12.6 nM. Further, on human 5-HT4b receptor, the Emax is 101% and the EC50 was found to be 2.8 nM.
For `CC(=O)N1CC[C@H](NC2CC(c3nc(-n4nc(C(C)C)c5cccc(F)c54)no3)C2)C1` (stereo partly drawn) [Example 591, 1-{(3S)-3-[(3-{3-[7-fluoro-3-(propan-2-yl)-1H-indazol-1-yl]-1,2,4-oxadiazol-5-yl}cyclobutyl)amino]pyrrolidin-1-yl}ethanone], in that order: under 20 nM, 97% and 2.6 nM.
For `CC(=O)N1CCC(N[C@H]2C[C@@H](c3nc(-n4nc(C(C)C)c5cccc(F)c54)no3)C2)CC1` [Example 593, 1-{4-[(cis-3-{3-[7-fluoro-3-(propan-2-yl)-1H-indazol-1-yl]-1,2,4-oxadiazol-5-yl}cyclobutyl)amino]piperidin-1-yl}ethanone], in that order: under 20 nM, 99% and 2.7 nM.
Take `CC(C)c1nn(-c2noc([C@H]3C[C@@H](NCC4CCN(S(C)(=O)=O)CC4)C3)n2)c2c(F)cccc12` [Example 594, cis-3-{3-[7-fluoro-3-(propan-2-yl)-1H-indazol-1-yl]-1,2,4-oxadiazol-5-yl}-N-{[1-(methylsulfonyl)piperidin-4-yl]methyl}cyclobutanamine]: the IC50 in test [1] was under 20 nM. Besides, on human 5-HT4b receptor, the Emax was found to be 106% and the EC50 came to 2.3 nM.
For `CC(C)c1nn(-c2noc(C3CC(NC4CCOCC4)C3)n2)c2c(F)cccc12` (stereo not drawn) [Example 595, N-(3-{3-[7-fluoro-3-(propan-2-yl)-1H-indazol-1-yl]-1,2,4-oxadiazol-5-yl}cyclobutyl)tetrahydro-2H-pyran-4-amine], in that order: under 20 nM, 93% and 6.9 nM.
For `COCCNC1CC(c2nc(-n3nc(C(C)C)c4cccc(F)c43)no2)C1` (stereo not drawn) [Example 605, 3-{3-[7-fluoro-3-(propan-2-yl)-1H-indazol-1-yl]-1,2,4-oxadiazol-5-yl}-N-(2-methoxyethyl)cyclobutanamine], in that order: under 20 nM, 113% and 2.3 nM.
Regarding `CC(C)c1nn(-c2noc(C3CC(NCC4CCOCC4)C3)n2)c2c(F)cccc12` (stereo not drawn) [Example 610, 3-{3-[7-fluoro-3-(propan-2-yl)-1H-indazol-1-yl]-1,2,4-oxadiazol-5-yl}-N-(tetrahydro-2H-pyran-4-ylmethyl)cyclobutanamine], the IC50 in test [1] is under 20 nM. At human 5-HT4b receptor, the Emax stood at 103% and a half-maximal response (EC50) required 9.1 nM.
For `CC(=O)NCCN(C1CCOCC1)C1CC(c2nc(-n3nc(C(C)C)c4cccc(F)c43)no2)C1` (stereo not drawn) [Example 611, N-{2-[(3-{3-[7-fluoro-3-(propan-2-yl)-1H-indazol-1-yl]-1,2,4-oxadiazol-5-yl}cyclobutyl)(tetrahydro-2H-pyran-4-yl)amino]ethyl}acetamide], in that order: 95.9 nM, 94% and 42.2 nM.
For `COCCN(CC1CCCO1)C1CC(c2nc(-n3nc(C(C)C)c4cccc(F)c43)no2)C1` (stereo not drawn) [Example 612, 3-{3-[7-fluoro-3-(propan-2-yl)-1H-indazol-1-yl]-1,2,4-oxadiazol-5-yl}-N-(2-methoxyethyl)-N-(tetrahydrofuran-2-ylmethyl)cyclobutanamine], in that order: 20.5 nM, 82% and 14.6 nM.
`COCCN(C1CCOCC1)[C@H]1C[C@@H](c2nc(-n3nc(C(C)C)c4cccc(F)c43)no2)C1` [Example 614, N-(cis-3-{3-[7-fluoro-3-(propan-2-yl)-1H-indazol-1-yl]-1,2,4-oxadiazol-5-yl}cyclobutyl)-N-(2-methoxyethyl)tetrahydro-2H-pyran-4-amine]: the half-maximal inhibitory concentration (IC50) in test [1] was under 20 nM. Also, at human 5-HT4b receptor, the Emax worked out at 93% and the concentration giving a half-maximal response (EC50) came to 10.9 nM.
For `CC(C)c1nn(-c2noc([C@H]3CC[C@@H](NCCC4CN(S(C)(=O)=O)C4)CC3)n2)c2c(F)cccc12` [Example 617, cis-4-{3-[7-fluoro-3-(propan-2-yl)-1H-indazol-1-yl]-1,2,4-oxadiazol-5-yl}-N-{2-[1-(methylsulfonyl)azetidin-3-yl]ethyl}cyclohexanamine], in test [1], the IC50 was 24.3 nM. For the same compound, on human 5-HT4b receptor, the Emax was 104% and the EC50 turned out to be 8.4 nM.
